# In patent publication US20160015786A1, “MOBILIZING AGENTS AND USES THEREFOR” (MATER MEDICAL RESEARCH INSTITUTE LIMITED, priority 2013, published 2016):
# What was measured:
# [1] = system: colony-forming cells (CFCs); assay: Mobilization of colony-forming cells (CFC/CFU) to blood and spleen, colony assays; type: in vivo, C57BL/6 mice
# Experimental: Mobilization of colony-forming cells (CFCs) to the blood and spleen were measured (FIG. 1B).
# This was divided into two experiments in which G-CSF was administered for 2 days in one experiment and 4 days in the other (FIG. 2). […] Mobilization of CFCs, phenotypic Lin^−CD41^−Sca1^+Kit^+ HSPCs and Lin^−CD41^− Sca1^+Kit^+CD48^−CD150^+ HSCs were measured in blood and spleens.
# Additional HIF-α potentiating agents in the form of PHD inhibitors were tested for their ability to enhance mobilization induced by G-CSF.
# At the end of treatment, blood was harvested by cardiac puncture, mice were sacrificed by cervical dislocation and spleens harvested. Femurs were removed, cleaned and the bone marrow was flushed with 1 mL PBS+10% newborn calf serum (NCS).
# The number of phenotypic hematopoietic stem and progenitor cells remaining in the bone marrow following treatment was measured by flow cytometry using antibodies specific for lineage markers (CD3, CD5, CD45R/B220, F4/80, Gr1, CD41, Ter119), Sca-1, Kit, CD48 and CD150. Similarly, the number of phenotypic hematopoietic stem cells mobilized into the blood and spleen were measured. Colony assays were also performed on blood and spleen to determine the number of colony forming cells per mL of blood and per spleen. […] Levels of significance for differences were calculated using the Student's t-test.
# All procedures were approved by the animal experimentation ethics committee of the University of Queensland. […] Plerixafor (AMD3100 octohydrochloride, Tocris Bioscience, Bristol, UK) was injected intraperitoneally as a single 16 mg/kg dose corresponding to 10 mg/kg of AMD3100 base. Tissues were harvested 1 h after Plerixafor administration. […] Control mice were injected with an equivalent volume of saline. At specified time-points, mice were anesthetized with isoflurane before cardiac puncture to harvest blood. Mice were then euthanized by cervical dislocation and BM and bones harvested.
# Optimal concentrations of mouse IL-3, IL-6 and soluble kit ligand were added as conditioned media from stably transfected BHK cell lines. Colonies were counted after 7 days culture at 37° C. in a humidified incubator containing 5% CO2.
# [2] = system: competitive repopulating HSC; assay: Long-term competitive repopulation assay of mobilized blood; type: in vivo, C57BL/6 mice
# Experimental: FIGS. 3A and 3B are graphical representations showing that Compound X synergizes with G-CSF and Plerixafor to enhance mobilization of competitive repopulating HSCs. CD45.2^+ mice were mobilized with G-CSF for 2 or 4 days with G-CSF alone (filled circles), with G-CSF in combination with Plerixafor for 1 hr (filled triangles), with Compound X for 3 days (filled squares) or with both Plerixafor, 1 hr, and Compound X, 3 days (filled inverted triangles). Blood (20 μL) was transplanted in lethally irradiated recipients together with 200,000 competitive BM cells from CD45.1^+ mice. Proportion of blood CD45.2+ leukocytes at 16 weeks post-transplantation and number of repopulating units per mL of mobilized blood calculated from donor chimerism at 16 weeks post-transplantation from (3A) 2 days treatment with G-CSF and (3B) 4 days treatment with G-CSF. Each dot is a result from one recipient mouse, bars are average. *: p<0.05; ** 0.001<p<0.01; *** p<0.001.
# This synergistic increase in HSC mobilization was further confirmed in long-term competitive repopulation assays following transplantation of 20 μL mobilized blood in competition with 2×10^5 BM cells from congenic donors. […] The number of mobilized long-term competitive repopulating HSC (measured 16 weeks post-transplant) doubled after treatment with 2 days G-CSF+1 h Plerixafor+3 days Compound X (G2P1X3) compared to G-CSF+Plerixafor (G2P1, p<0.05; FIG. 3A). […] The addition of Compound X to G-CSF (G4X3) increased 6-fold the number of mobilized repopulating units compared to G-CSF (G4) alone (P<0.001; FIG. 3B). The combination of Compound X with G-CSF and Plerixafor (G4P1X3) increased mobilization of repopulating units 3-fold compared to G-CSF+Plerixafor (G4P1) alone (P<0.001; FIG. 3B).
# The content of mobilized blood samples in competitive repopulating HSC was determined in competitive repopulation assays as previously described (12,17). The day prior to blood harvest, recipient congenic B6.SJL CD45.1^+ female mice were lethally irradiated with 11.0Gy in two split doses 4 hours apart. 50 μL blood samples from 6 mobilized CD45.2^+ C57BL/6 donor mice were pooled within each treatment group and 20 μL blood aliquots were taken from this pool and mixed with 200,000 competitive whole BM cells from untreated B6.SJL CD45.1^+ in a total volume of 200 μL saline, and injected retro-orbitally into each lethally irradiated recipient. Recipients were maintained with antibiotics for the first 3 weeks post-transplant and tail bled 8, 12 and 16 weeks post-transplant to determine CD45.2 (test donor blood) versus CD45.1 (competitive whole BM cells) chimerism in myeloid, B and T lineages by flow cytometry using CD45.1-PE, CD45.2-allophycocyanin (APC), CD3-FITC, B220-allophycocyanin (APC)-cyanin (CY) 7, CD11b-PECY7, Ly6G-Pacific Blue. Content in repopulating units (RU) was calculated as previously described (18-19).
# [3] = Compound X added to 2 days G-CSF plus Plerixafor, p<0.005
smiles,measurement,setting,value
"O=C(O)CNC(=O)c1ncc2cc(Sc3ccccc3)ccc2c1O [Compound X, [(4-Hydroxy-7-phenylsulfanyl-isoquinoline-3-carbonyl)-amino]-acetic acid]",mobilization of HSPC to the spleen,"[1]; 1 hr following Plerixafor treatment with or without Compound X, FIG. 1D",no significant mobilization
same,day of Compound X administration at which CFC mobilization into blood and spleen peaks,"[1]; Compound X 1-4 days, G-CSF for the last 2 days, FIG. 1C",3 days
same,further increase of CFC/mL mobilized into blood,[1]; [3],2.5 fold
same,further increase of CFC/spleen,[1]; [3],4 fold
same,boost of CFC/mL blood,"[1]; Compound X added to 4 days G-CSF plus Plerixafor, p<0.005",2.5 fold
same,CFC mobilization into the blood,[1]; Compound X alone for 3 days,did not induce
same,increase in CFCs mobilized per mL blood,"[1]; Example 1: Compound X 3 days added to G-CSF, following 2 days of G-CSF, FIG. 1B",2.5 fold
same,increase of CFCs mobilized to the spleen,"[1]; Example 1: Compound X 3 days added to G-CSF, following 3 days of G-CSF, FIG. 1B",6 fold
same,increase in the number of CFC/mL blood,"[1]; Example 3: 4 days G-CSF, addition of Compound X, P<0.001",4 fold
same,number of CFC/spleen,"[1]; Example 3: 4 days G-CSF, addition of Compound X, P<0.01",further significant increase
same,mobilizing effect,[1]; Example 3: Compound X alone (data not shown),no mobilizing effect
same,CFC mobilized to the blood versus G-CSF alone,"[1]; Example 3: G-CSF 250 μg/kg/day 2 days + Compound X 20 mg/kg/day 3 days (G+X3), p<0.001, FIG. 2B",4 fold
same,CFC mobilized to the spleen versus G-CSF alone,"[1]; Example 3: G-CSF 2 days + Compound X 20 mg/kg/day 3 days (G+X3), p<0.001, FIG. 2B",47 fold
same,number of CFC mobilized per mL blood in response to Plerixafor,"[1]; Plerixafor 1 h plus 2 to 3 day treatment with Compound X, FIG. 1D",significantly increased
same,number of mobilized long-term competitive repopulating HSC versus G-CSF+Plerixafor,"[2]; 16 weeks post-transplant, G2P1X3 vs G2P1, p<0.05, FIG. 3A",doubled
same,competitive repopulating HSC mobilized (CD45.2/CD45.1 chimerism) versus G-CSF+Plerixafor,"[2]; 2 days G-CSF+Plerixafor+Compound X (G2P1X3) vs G2P1, p<0.01",6 fold
same,number of long-term repopulating HSC per mL of blood,[2]; Compound X in combination with G-CSF and Plerixafor (discussion),tripled
same,increase in mobilization of repopulating units versus G-CSF+Plerixafor,"[2]; G4P1X3 vs G4P1, P<0.001, FIG. 3B",3 fold
same,increase in number of mobilized repopulating units versus G-CSF alone,"[2]; G-CSF 4 days + Compound X (G4X3) vs G4, P<0.001, FIG. 3B",6 fold
